In the METLIN SMRT retention time set (Domingo-Almenara et al. 2019):

Assay: gradient 5% acetonitrile 3 min, to 50% in 2 min, to 85% in 15 min, held 3 min, 100 µL/min
Settings: column: Zorbax Extend-C18 2.1 x 50 mm; eluents: water / acetonitrile, 0.1% formic acid
Procedure, shortened: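 The mobile phases were water and acetonitrile, each with 0.1% formic acid, pumped at 100 μL/min through a Zorbax Extend-C18 column (2.1 × 50 mm, 1.8 μm). Pure standards were injected as mixtures of ~100 molecules and detected by a quadrupole time-of-flight mass spectrometer in positive and negative ionization mode. Retention time came from computationally picked adduct peaks, each inspected by hand.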

Row | RP-LC retention time [s] | Compound
1 | 597 | Cc1occc1C(=O)N[C@@H]1CN(c2ncccn2)C[C@H]1CO
2 | 580 | O=C(c1ccc2nc(-c3ccccc3)cn2c1)N1CCOCC1
3 | 698 | Cc1cccc(NC(=O)C2CCc3nc(N4CCOCC4)ncc3C2)c1C (stereo unspecified)
4 | 846 | CCOc1ccccc1NC(=O)C1CCN(S(=O)(=O)c2cn(C(C)C)cn2)CC1
5 | 776 | Cc1noc(-c2ccc(NC(=O)c3cccs3)cc2)n1
6 | 550 | COC(=O)c1c(NCCCN2CCCC2)c2cccc(Cl)c2[nH]c1=O
7 | 786 | Cc1cc(C)n(-c2ccnc(N3CCC(C(=O)NC4CCCC4)CC3)n2)n1
8 | 612 | CC1CCCCN1CCNC(=O)Cn1c(=O)c2cccn2c2ccc(F)cc21 (stereo unspecified)
9 | 882 | COc1ccc(OC)c(CC2C(=O)Nc3c(C)cccc32)c1 (stereo unspecified)
10 | 699 | COCCNC(=O)c1nc2ccccn2c1-c1ccc(F)cc1
11 | 632 | CC(O)(CNC(=O)NCc1cccs1)C1CC1 (stereo unspecified)
12 | 706 | O=S(=O)(Cc1ccccc1F)N1CCCC(c2nn[nH]n2)C1 (stereo unspecified)
13 | 846 | COCCCNC(=O)C1c2ccccc2C(=O)N(Cc2ccccc2)C12CCCC2 (stereo unspecified)
14 | 1110 | Cn1cc(-c2nc(C(=O)Nc3cccc(Cl)c3)cs2)c2cccnc21
15 | 625 | Cc1cc(=O)n(CC(=O)N(C)c2ccccc2)c(N2CCCC2)n1
16 | 965 | CCc1ccc(C2=C(C)C(N3CCC(NC(=O)C(C)(C)CC)CC3)=NS2(=O)=O)cc1
17 | 941 | CCOc1ccc(S(=O)(=O)N2CCC(c3nc(C(=O)N4CCCC4)c(C)o3)CC2)cc1
18 | 707 | CCn1nc(N2CCCC(NC(=O)Cn3c(=O)oc4ccccc43)C2)ccc1=O (stereo unspecified)
19 | 663 | Cc1cnc(C2CCC2)n1C1CCN(C(=O)C2(c3ccccc3)CC2)CC1
20 | 874 | CCc1ccc(NC(=O)Cn2nc(N3CCOCC3)c3ccccc3c2=O)cc1
21 | 633 | CCCNC(=O)c1cccc2c1CCN2C(C)=O
22 | 740 | O=C(NCc1cscn1)C1CCN(S(=O)(=O)c2ccc(Br)s2)CC1
23 | 1070 | Cc1ccc(-c2csc(NC(=O)c3coc4ccccc4c3=O)n2)o1
24 | 697 | CCc1ccc(C(C)NC(=O)C2CCN(c3cncnc3N3CCOCC3)CC2)cc1 (stereo unspecified)

Row | RP-LC retention time [s] | Compound
25 | 732 | Cc1cc(C(=O)NCCCN2CCCC2=O)c2c(C)nn(-c3ccccc3)c2n1
26 | 740 | Cc1nc(C2CCOCC2)n(C2CCN(S(=O)(=O)c3cc(F)cc(F)c3)C2)n1 (stereo unspecified)
27 | 708 | CCCn1cnc2cc(-c3noc(C(NC(=O)c4ccco4)C(C)C)n3)ccc21 (stereo unspecified)
28 | 1110 | Cc1oc(C2CCC2)nc1C(=O)NCc1cccc(C(F)(F)F)c1
29 | 802 | Cc1noc(-c2cc(=O)n(CC(=O)NCc3ccc4c(c3)OCO4)c3ccccc23)n1
30 | 560 | Cc1ccc(O)c(CNC2CCN(c3ccc(C(=O)NC4CC4)cn3)C2)c1 (stereo unspecified)
31 | 887 | COc1cccc(CN2N=C(C(=O)N3CCOCC3)S(=O)(=O)c3cc(Cl)ccc32)c1
32 | 650 | COc1ccc(Nc2c(C(=O)N3CCCC(C)C3)cnc3nc(C)ccc23)cc1 (stereo unspecified)
33 | 819 | Cc1cccc(NC(=O)Cn2nc(C(=O)N3CCOCC3)c3ccccc32)c1C
34 | 678 | Cc1cccc(N(C)C(=O)Cn2nc3nc(N4CCCC4)ccn3c2=O)c1
35 | 1000 | COc1ccc(C2(C(=O)Nc3cc(-c4ccco4)no3)CC2)cc1
36 | 583 | Fc1ccc(CN2CCC3(CC2)N=C(C2CC2)NO3)cc1
37 | 640 | CN1C2CCCC1CC(NC(=O)c1nn(C)c3ccccc13)C2 (stereo unspecified)
38 | 1040 | O=C(C1CCN(c2nc3ccc(-c4ccccc4)nc3s2)CC1)N1CCCCC1
39 | 717 | Cc1ccc2oc(-c3noc(C(=O)NCCCN4CCCC4)n3)c(C)c2c1
40 | 1030 | Cc1ccc(-c2noc(C3CCCN3C(=O)c3ccccc3F)n2)cc1 (stereo unspecified)
41 | 652 | Cc1cc(=O)n(CC(=O)NCc2ccccc2)c(N2CCCCC2)n1
42 | 771 | Cc1ccc(-c2nc(C3CC(=O)N(C4CCCCC4)C3)no2)cn1 (stereo unspecified)
43 | 862 | CC(NC(=O)c1ccc2c(c1)CCCN2S(C)(=O)=O)c1ccccc1 (stereo unspecified)
44 | 619 | O=C(NCc1cccnc1)C1CN(C(=O)c2cccs2)CC12CCCCC2 (stereo unspecified)
45 | 648 | CCC1CCCCN1C(=O)c1cnc2nc(C)ccc2c1Nc1ccc(OC)c(OC)c1 (stereo unspecified)
46 | 662 | CC(NC(=O)C1=CCN(Cc2cccc(F)c2)CC1)c1ccccc1 (stereo unspecified)
47 | 755 | CCCS(=O)(=O)N(C)C1CCc2nn(Cc3ccccc3)c(=O)n2CC1 (stereo unspecified)

The next lines start with the molecule.

Row | Compound | RP-LC retention time [s]
48 | Cc1ccccc1-c1noc(Cn2c(=O)n(C(C)C)c(=O)c3ccccc32)n1 | 1160
49 | COc1ccccc1CCNC(=O)CSc1ccc(-c2cccs2)nn1 | 802
50 | CCc1nc(-c2csc(S(=O)(=O)N3CCC(C(=O)NC4CCCC4)CC3)c2)no1 | 880
51 | Cc1ccccc1CNC(=O)C1(C)CCCN(C(=O)Nc2ccccc2)C1 (stereo unspecified) | 898
52 | COc1ccccc1C(=O)Nc1nnc(SCc2ccc(Br)cc2)s1 | 1140
53 | COc1ccccc1CNC1=NCCNC12CCN(S(=O)(=O)c1ccccc1)CC2 | 692
54 | Cc1nc2nc(-c3ccc(C(C)(C)C)cc3)nn2c(C)c1CC(=O)Nc1ccc(Br)cc1 | 1220
55 | Cc1ccc(S(=O)(=O)N2CCC(n3cnnc3C)CC2)c(C)c1 | 713
56 | CN(CC1(C)CCOCC1)C(=O)c1ccc(C#N)cc1 | 716
57 | COc1cccc(-c2nc(-c3ccc4c(c3)oc(=O)n4C)no2)c1OC | 959
58 | CCN(CC)C(=O)c1sc2ncn(CC(=O)N3CCCCC3C)c(=O)c2c1C (stereo unspecified) | 752
59 | Cc1ccn2cc(-c3ccc(NS(=O)(=O)c4ccc5cccc6c5c4CC6)cc3)nc2n1 | 748
60 | Cc1cc2cc3n(c2nn1)N=C(Cl)CC3 | 610
61 | CCC(=O)n1nc(C)c(S(=O)(=O)N2CCOCC2)c1C | 848
62 | Cc1cnn(CC(=O)N2CCCCCCNC(=O)[C@@H]3CCCC[C@@H]32)c1 | 716
63 | CCC(C)NC(=O)Cc1cccn1-c1ccc(F)cc1 (stereo unspecified) | 856
64 | CCN(CC)C(=O)c1cnc2nc(C)ccc2c1Nc1ccc(CC(=O)O)cc1 | 1020
65 | Cc1ccsc1C(=O)Nc1cnc(-c2ccc(Cl)cc2)nc1 | 1110
66 | COc1cc(NC(=O)C2=C(C)OCCS2)c(Cl)cc1C(=O)N1CCN(C2CCCCC2)CC1 | 684
67 | Cc1nnc2cc(N3CCN(S(=O)(=O)c4ccc(C#N)cc4)CC3)cnn12 | 642
68 | CC1(C)CC(=O)c2cn(-c3ccc(Cl)cc3)c(=O)c(C(=O)O)c2C1 | 907
69 | Cc1cccc(-c2noc(Cn3c(=O)n(Cc4ccco4)c(=O)c4ccccc43)n2)c1 | 1090

Row | Compound | RP-LC retention time [s]
70 | CC1(C(=O)NCc2ccc(Cl)cc2)CN(S(C)(=O)=O)CC(=O)N1Cc1ccc(F)cc1 (stereo unspecified) | 814
71 | Cc1nc(-c2nc3c(s2)CN(C(=O)COc2ccc(Cl)cc2)CC3)cs1 | 922
72 | COc1ccc(-c2noc(CCCC(=O)Nc3nc(-c4ccccc4)cs3)n2)cc1OC | 982
73 | Cc1cc(=O)n2c3ccccc3n(CC(O)CN3CCN(c4ccccc4)CC3)c2c1C#N (stereo unspecified) | 670
74 | CC(C)C[C@H](NC(=O)C1OC1C(=O)O)C(=O)NCCCCN=C(N)N (stereo partly specified) | 591
75 | Nc1ccc(Cl)cc1C(=O)c1ccccc1Cl | 1140
76 | COc1cc2c(cc1OC)C(C(=O)Nc1ccc3c(c1)OCCO3)C(c1cccs1)N(C)C2=O (stereo unspecified) | 783
77 | COc1cccc(CC(=O)N2CCN3CCS(=O)(=O)N(C4CC4)C(=O)C3C2)c1 (stereo unspecified) | 747
78 | O=C(CCCc1ccccc1)N1CCN(c2cc(-c3cccs3)[nH]n2)CC1 | 860
79 | CC1CCN(S(=O)(=O)c2cc(C(=O)N3CCN(c4ccc(F)cc4)CC3)n(C)c2)CC1 | 1010
80 | CCn1c(=O)cc(SCC(=O)N2CCN(c3ccccn3)CC2)c2ccccc21 | 607
81 | Cc1nn2c(ncc3c(=O)n(-c4nccs4)ccc32)c1-c1ccccc1 | 1170
82 | O=C([C@@H]1C[C@H](F)CN1S(=O)(=O)c1ccc(F)c(Cl)c1)N1CCc2ccccc2C1 | 997
83 | Cc1ccc(NC(=O)NCC(c2cccnc2)c2c[nH]c3ccccc23)c(C)c1 (stereo unspecified) | 683
84 | O=C(NC1CCCCCCC1)C1CC(=O)N(CCc2c[nH]c3ccc(Cl)cc23)C1 (stereo unspecified) | 732
85 | O=C(Cn1nc(Cc2cccnc2)c2ccccc2c1=O)Nc1ccc(Cl)cn1 | 608
86 | CCN1c2ccccc2C(=O)NC12CCN(C(=O)c1cccc(C)c1)CC2 | 805
87 | CCOC(=O)C1CCN(c2cc3c(cc2NC(=O)C(C)(C)C)n(C)c(=O)c(=O)n3C)CC1 | 844
88 | CCN1C(=O)c2cc(S(=O)(=O)Nc3cccc(Cl)c3)ccc2Oc2cccnc21 | 1060
89 | CSc1nnc(CCc2c(C)[nH]c(=O)[nH]c2=O)o1 | 549
90 | COc1ccc(CN2CCc3nc(N4CCN(c5ccccc5F)CC4)ncc3C2)cc1 | 773
91 | O=C(COc1ccc(F)cc1)N1CCN(C(=O)c2nnn3c2COC(c2ccc(Cl)cc2)C3)CC1 (stereo unspecified) | 937
